This is an account of results in ChEMBL document CHEMBL3217746, “Edaravone containing isoindoline nitroxides for the potential treatment of cardiovascular ischaemia” (Medchemcomm, 2011).

Structures are written as SMILES. Activity calls are given as the source filed them. No cut-off for these calls is given here.

A short description of data set [1]: Peak plasma concentration in rat at 1.5 mg/kg, iv bolus dose. The data set is classed as ADME, organism-based. Also on record: dose 1.5 mg/kg, route intravenous.
In another data set the test system is Rattus norvegicus. Put plainly: Cardioprotective activity against iv dosed ischaemic brain injury rat model assessed as effective dose after 30 mins. The data set is classed as functional.
Data set [2] relates to H9c2. Put plainly: Cardioprotective activity in rat H9c2 cells hypoxia-induced ischaemic model assessed as decrease in cell death at 1 to 100 uM by propidium iodide exclusion assay. The data set is classed as functional, cell-based.
For data set [3], the system named is H9c2. Put plainly: Cardioprotective activity in rat H9c2 cells hypoxia-induced ischaemic model assessed as maximal decrease in cell death at 100 uM by propidium iodide exclusion assay. Type of data set: functional, cell-based.
Data set [4] relates to H9c2. The experiment in a line: Cardioprotective activity in rat H9c2 cells hypoxia-induced ischaemic model assessed as maximal decrease in cell death at 10 uM by propidium iodide exclusion assay. Type of data set: functional.

Broadly, the Cmax is the maximum level reached in the sampled fluid or tissue. In general, inhibition refers to the drop in the measured response relative to a control, in per cent. With `CC1=NN(c2ccccc2)C(=O)C1` [EDARAVONE], the Cmax in data set [1] is 20 µM. Also, the ED in the data set with Rattus norvegicus came out at 3 mg/kg. For the same compound, in the data set with H9c2 [2], the inhibition result was “Active”.
With `CC1=NN(c2ccc3c(c2)C(C)(C)N([O])C3(C)C)C(=O)C1`, the inhibition entry in the data set on H9c2 [2] was “Active”. Also, the inhibition in the data set on H9c2 [3] was 85.5%.
As to `OC[C@H]1O[C@@H](n2cnc3c(NC4CCCC4)ncnc32)[C@H](O)[C@@H]1O` [N6-CYCLOPENTYLADENOSINE], in the data set with H9c2 [4], the inhibition at 10 µM was determined as 75.4%.
In the case of `CON1C(C)(C)c2ccc(N3N=C(C)CC3=O)cc2C1(C)C`, in the data set with H9c2 [2], the inhibition result was “Active”.
